Assay results from BindingDB's records for doi:10.1021/jm020046y (National Institute of Diabetes, 2002).

Tests used:
P2Y purinoceptor 1 = P2Y purinoceptor 1 (Meleagris gallopavo, UniProt P49652); assay: Evaluated for agonist activity against phospholipase C coupled P2Y purinoceptor 1 (P2Y1) of turkey erythrocytes
P2X purinoceptor 7 = target: T1, P2X purinoceptor 7 (Rattus norvegicus, UniProt Q64663); assay: The compound was evaluated for antagonist activity against recombinant rat P2X purinoceptor 7 (P2X7)
T1 sequence (Q64663 whole entry): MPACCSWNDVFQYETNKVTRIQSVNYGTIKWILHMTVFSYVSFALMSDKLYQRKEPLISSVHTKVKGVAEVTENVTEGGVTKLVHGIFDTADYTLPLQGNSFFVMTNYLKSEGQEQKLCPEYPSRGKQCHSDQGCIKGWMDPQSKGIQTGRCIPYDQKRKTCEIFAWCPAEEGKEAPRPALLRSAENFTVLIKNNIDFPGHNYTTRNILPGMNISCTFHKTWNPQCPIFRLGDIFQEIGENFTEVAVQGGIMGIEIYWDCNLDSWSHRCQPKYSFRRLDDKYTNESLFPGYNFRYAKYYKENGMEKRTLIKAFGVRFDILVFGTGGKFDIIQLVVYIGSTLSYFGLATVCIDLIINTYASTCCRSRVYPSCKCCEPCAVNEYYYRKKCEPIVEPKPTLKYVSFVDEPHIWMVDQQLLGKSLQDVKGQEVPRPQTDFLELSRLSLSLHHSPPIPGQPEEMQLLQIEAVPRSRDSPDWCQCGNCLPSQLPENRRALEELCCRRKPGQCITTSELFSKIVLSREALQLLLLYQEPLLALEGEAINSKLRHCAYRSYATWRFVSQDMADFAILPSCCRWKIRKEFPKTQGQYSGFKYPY

[1] = target: P2X purinoceptor 2 (Rattus norvegicus); assay: The compound was evaluated for antagonist activity against recombinant rat P2X purinoceptor 2 (P2X2) at 30 uM
[2] = The compound was evaluated for antagonist activity against recombinant rat P2X […] receptor 10 uM
[3] = Dissociation constant at P2X purinoceptor 1 from guinea pig taenia coli
[4] = target: P2X purinoceptor 3 (Rattus norvegicus) (UniProt P49654); assay: The compound was evaluated for antagonist activity against recombinant rat P2X purinoceptor 3 (P2X3) at 10 uM,expressed in Xenopus oocytes
Sequence of P2X purinoceptor 3 (Rattus norvegicus) (P49654 whole entry, looked up): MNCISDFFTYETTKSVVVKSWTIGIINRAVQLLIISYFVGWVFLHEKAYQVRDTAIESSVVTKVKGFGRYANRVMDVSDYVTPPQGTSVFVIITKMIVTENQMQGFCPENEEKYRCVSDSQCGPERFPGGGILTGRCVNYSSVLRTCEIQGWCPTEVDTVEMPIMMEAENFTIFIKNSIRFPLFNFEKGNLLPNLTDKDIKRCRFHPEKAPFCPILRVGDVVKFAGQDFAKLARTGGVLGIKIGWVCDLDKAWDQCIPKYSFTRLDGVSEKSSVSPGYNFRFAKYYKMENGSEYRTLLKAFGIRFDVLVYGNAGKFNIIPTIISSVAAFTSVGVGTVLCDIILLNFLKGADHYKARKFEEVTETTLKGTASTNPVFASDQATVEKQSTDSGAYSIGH

[5] = target: P2X purinoceptor 3 (Rattus norvegicus) (UniProt P49654); assay: The compound was evaluated for antagonist activity against recombinant rat P2X purinoceptor 3 (P2X3) at 3 uM, expressed in Xenopus oocytes
[6] = Dissociative constant against P2Y purinoceptor (P2Y) was reported; range 10-214

Sequence of P2Y purinoceptor 1 (P49652 whole entry): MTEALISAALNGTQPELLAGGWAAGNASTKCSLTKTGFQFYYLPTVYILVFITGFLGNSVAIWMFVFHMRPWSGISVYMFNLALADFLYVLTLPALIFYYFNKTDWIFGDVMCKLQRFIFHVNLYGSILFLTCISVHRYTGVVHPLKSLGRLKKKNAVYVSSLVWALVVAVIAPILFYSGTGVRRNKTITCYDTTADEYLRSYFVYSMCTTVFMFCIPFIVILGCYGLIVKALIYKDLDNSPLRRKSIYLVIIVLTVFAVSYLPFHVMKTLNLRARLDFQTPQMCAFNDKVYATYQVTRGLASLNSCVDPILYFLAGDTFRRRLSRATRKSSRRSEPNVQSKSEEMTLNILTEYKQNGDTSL

CCOc1ccc(Nc2ccc([C+](c3ccc(N(CC)Cc4cccc(S(=O)(=O)[O-])c4)cc3C)c3ccc(N(CC)Cc4cccc(S(=O)(=O)O)c4)cc3C)cc2)cc1 [Brilliant Blue] gave an EC50 (P2Y purinoceptor 1) of 0.0001 µM and an EC50 (P2X purinoceptor 7) of 0.4 µM.

Work on O=c1[nH]cnc2c1ncn2[C@@H]1O[C@H](COP(=O)(O)OP(=O)(O)OP(=O)(O)OP(=O)(O)OP(=O)(O)OC[C@H]2O[C@@H](n3cnc4c(=O)[nH]cnc43)[C@H](O)[C@@H]2O)[C@@H](O)[C@H]1O [Ip5I] yielded an IC50 [1] of over 30 µM and an IC50 [2] of 2.8 µM.

C=CS(=O)(=O)c1cccc(Nc2cc(S(=O)(=O)O)c(N)c3c2C(=O)c2ccccc2C3=O)c1 [Uniblue A] gave a Kd [3] of 0.8 µM.

Nc1ccc(CCSc2nc(N)c3ncn([C@@H]4O[C@H](COP(=O)(O)OP(=O)(O)OP(=O)(O)O)[C@@H](O)[C@H]4O)c3n2)cc1 [PAPET-ATP] showed an EC50 [4] of 0.017 µM.

In the case of CCCCCCSc1nc(N)c2ncn([C@@H]3O[C@H](COP(=O)(O)O)[C@@H](O)[C@H]3O)c2n1 [((2R,3S,4R,5R)-5-(6-amino-2-(hexylthio)-9H-purin-9-yl)-3,4-dihydroxytetrahydrofuran-2-yl)methyl dihydrogen phosphate], the EC50 [4] is reported as 0.35 µM.

In the case of Nc1ncnc2c1ncn2[C@@H]1O[C@H](CO[P@@](=O)(O)O[P@@](=O)(O)CP(=O)(O)O)[C@@H](O)[C@H]1O, the EC50 [5] is reported as 9.2 µM.

In the case of O=S(=O)(O)c1cc(N=C=S)ccc1/C=C/c1ccc(N=C=S)cc1S(=O)(=O)O [DIDS], the Kd [6] is reported as 10 µM.
